Results taken from BindingDB's records for PubMed 9454810 (Sanofi Recherche, 1998).

Experiments:
[1] = target: Calcium-activated potassium channel subunit beta-1 (Homo sapiens, UniProt Q16558)
P2X purinoceptor 1 = P2X purinoceptor 1 (Homo sapiens, UniProt P51575)
[2] = target: Neuropeptide Y receptor type 2 (Homo sapiens, UniProt P49146)
[3] = target: Alpha-1A adrenergic receptor (Homo sapiens, UniProt P35348)
[4] = target: Leukotriene B4 receptor 2 (Homo sapiens, UniProt Q9NPC1)
[5] = target: Voltage-dependent N-type calcium channel subunit alpha-1B (Homo sapiens, UniProt Q00975)
Neurotensin/neuromedin N = Neurotensin/neuromedin N (Human, UniProt P30990)
[6] = target: Gamma-aminobutyric acid receptor subunit alpha-1 (Homo sapiens, UniProt P14867)
Vasopressin V1b receptor = Vasopressin V1b receptor (Homo sapiens, UniProt P47901)
P2Y purinoceptor 1 = P2Y purinoceptor 1 (Homo sapiens, UniProt P47900)
[7] = target: Muscarinic acetylcholine receptor M1 (Homo sapiens, UniProt P11229)
Substance-K receptor = Substance-K receptor (Homo sapiens, UniProt P21452)
Vasopressin V2 receptor = Vasopressin V2 receptor (Homo sapiens, UniProt P30518)
[8] = target: Gastrin/cholecystokinin type B receptor (Homo sapiens, UniProt P32239)
[9] = target: AP-4 complex subunit sigma-1 (Homo sapiens, UniProt Q9Y587)
Histamine H3 receptor = Histamine H3 receptor (Homo sapiens, UniProt Q9Y5N1)
[10] = target: Muscarinic acetylcholine receptor M2 (Homo sapiens, UniProt P08172)
[11] = target: 5-hydroxytryptamine receptor 1D (Homo sapiens, UniProt P28221)
Histamine H2 receptor = Histamine H2 receptor (Homo sapiens, UniProt P25021)
[12] = target: Endothelin receptor type B (Homo sapiens, UniProt P24530)
Galanin peptides = Galanin peptides (Homo sapiens, UniProt P22466)
[13] = target: 5-hydroxytryptamine receptor 3A (Homo sapiens, UniProt P46098)
D(1A) dopamine receptor = D(1A) dopamine receptor (Homo sapiens, UniProt P21728)
Adenosine receptor A2a = Adenosine receptor A2a (Homo sapiens, UniProt P29274)
[14] = target: Beta-2 adrenergic receptor (Homo sapiens, UniProt P07550)
[15] = target: Muscarinic acetylcholine receptor M4 (Homo sapiens, UniProt P08173)
[16] = target: Potassium voltage-gated channel subfamily A member 1 (Homo sapiens, UniProt Q09470)
Substance-P receptor = Substance-P receptor (Homo sapiens, UniProt P25103)
[17] = target: Protein kinase C alpha type (Homo sapiens, UniProt P17252)
[18] = target: Peripheral-type benzodiazepine receptor-associated protein 1 (Homo sapiens, UniProt O95153)
VIP peptides = VIP peptides (Homo sapiens, UniProt P01282)
[19] = target: 5-hydroxytryptamine receptor 2C (Homo sapiens, UniProt P28335)
Adenosine receptor A1 = Adenosine receptor A1 (Homo sapiens, UniProt P30542)
[20] = target: Neuronal acetylcholine receptor subunit alpha-3 (Homo sapiens, UniProt P32297)
B2 bradykinin receptor = B2 bradykinin receptor (Homo sapiens, UniProt P30411)
[21] = target: Type-1 angiotensin II receptor (Homo sapiens, UniProt P30556)
[22] = target: 5-hydroxytryptamine receptor 1B (Homo sapiens, UniProt P28222)
Histamine H1 receptor = Histamine H1 receptor (Homo sapiens, UniProt P35367)
[23] = target: Pro-thyrotropin-releasing hormone (Homo sapiens, UniProt P20396)
Thromboxane A2 receptor = Thromboxane A2 receptor (Homo sapiens, UniProt P21731)

Measured: Ki

Histamine H1 receptor, sequence (P35367 whole entry): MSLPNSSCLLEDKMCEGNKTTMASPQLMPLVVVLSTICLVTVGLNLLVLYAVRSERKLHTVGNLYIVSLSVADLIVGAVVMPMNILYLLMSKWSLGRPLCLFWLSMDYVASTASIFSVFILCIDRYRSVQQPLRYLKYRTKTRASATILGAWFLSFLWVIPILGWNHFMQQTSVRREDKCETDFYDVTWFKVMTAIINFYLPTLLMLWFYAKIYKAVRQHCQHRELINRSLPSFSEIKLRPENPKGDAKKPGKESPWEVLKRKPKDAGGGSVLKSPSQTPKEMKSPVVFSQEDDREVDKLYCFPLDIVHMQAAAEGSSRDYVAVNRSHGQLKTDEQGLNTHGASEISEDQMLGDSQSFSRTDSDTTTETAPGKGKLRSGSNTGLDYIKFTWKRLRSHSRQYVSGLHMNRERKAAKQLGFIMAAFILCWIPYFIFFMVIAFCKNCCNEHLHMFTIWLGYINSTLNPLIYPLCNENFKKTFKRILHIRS
Calcium-activated potassium channel subunit beta-1, sequence (Q16558 whole entry): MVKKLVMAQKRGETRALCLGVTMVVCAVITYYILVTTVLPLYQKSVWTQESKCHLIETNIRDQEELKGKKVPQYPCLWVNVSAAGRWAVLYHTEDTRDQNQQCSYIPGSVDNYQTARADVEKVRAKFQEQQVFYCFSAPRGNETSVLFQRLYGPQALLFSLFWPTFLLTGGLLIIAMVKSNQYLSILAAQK
P2X purinoceptor 1, sequence (P51575 whole entry): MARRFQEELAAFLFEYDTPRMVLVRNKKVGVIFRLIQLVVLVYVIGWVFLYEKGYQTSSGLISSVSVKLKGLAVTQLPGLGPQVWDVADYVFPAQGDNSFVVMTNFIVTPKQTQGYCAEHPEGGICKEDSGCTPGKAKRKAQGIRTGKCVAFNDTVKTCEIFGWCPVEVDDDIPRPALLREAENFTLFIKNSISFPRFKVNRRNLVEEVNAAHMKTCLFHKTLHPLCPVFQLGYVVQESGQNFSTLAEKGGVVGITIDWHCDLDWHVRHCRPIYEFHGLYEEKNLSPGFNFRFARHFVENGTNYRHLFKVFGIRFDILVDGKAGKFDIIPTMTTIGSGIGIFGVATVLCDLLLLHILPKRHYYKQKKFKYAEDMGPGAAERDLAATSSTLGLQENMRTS
Vasopressin V2 receptor, sequence (P30518 whole entry): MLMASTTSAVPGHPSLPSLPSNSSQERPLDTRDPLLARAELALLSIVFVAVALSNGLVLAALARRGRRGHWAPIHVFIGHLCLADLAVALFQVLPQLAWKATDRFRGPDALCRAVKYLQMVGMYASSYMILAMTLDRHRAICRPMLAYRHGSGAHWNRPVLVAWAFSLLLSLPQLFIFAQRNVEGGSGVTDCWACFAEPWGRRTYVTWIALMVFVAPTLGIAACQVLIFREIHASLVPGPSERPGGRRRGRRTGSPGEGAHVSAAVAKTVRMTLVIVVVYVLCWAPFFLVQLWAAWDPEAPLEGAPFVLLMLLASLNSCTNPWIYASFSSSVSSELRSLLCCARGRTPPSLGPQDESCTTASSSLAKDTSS
Muscarinic acetylcholine receptor M1, sequence (P11229 whole entry): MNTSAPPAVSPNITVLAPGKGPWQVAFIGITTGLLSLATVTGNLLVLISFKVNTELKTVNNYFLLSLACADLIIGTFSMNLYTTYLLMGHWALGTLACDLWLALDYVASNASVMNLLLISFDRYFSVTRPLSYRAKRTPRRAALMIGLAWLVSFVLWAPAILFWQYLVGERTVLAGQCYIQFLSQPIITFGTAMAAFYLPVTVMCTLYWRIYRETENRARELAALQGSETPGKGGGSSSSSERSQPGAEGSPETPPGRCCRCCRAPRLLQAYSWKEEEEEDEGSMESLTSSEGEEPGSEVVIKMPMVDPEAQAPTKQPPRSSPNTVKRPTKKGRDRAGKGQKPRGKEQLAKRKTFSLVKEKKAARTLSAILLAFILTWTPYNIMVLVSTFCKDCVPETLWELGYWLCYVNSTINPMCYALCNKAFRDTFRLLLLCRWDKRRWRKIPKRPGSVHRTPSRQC
Potassium voltage-gated channel subfamily A member 1, sequence (Q09470 whole entry): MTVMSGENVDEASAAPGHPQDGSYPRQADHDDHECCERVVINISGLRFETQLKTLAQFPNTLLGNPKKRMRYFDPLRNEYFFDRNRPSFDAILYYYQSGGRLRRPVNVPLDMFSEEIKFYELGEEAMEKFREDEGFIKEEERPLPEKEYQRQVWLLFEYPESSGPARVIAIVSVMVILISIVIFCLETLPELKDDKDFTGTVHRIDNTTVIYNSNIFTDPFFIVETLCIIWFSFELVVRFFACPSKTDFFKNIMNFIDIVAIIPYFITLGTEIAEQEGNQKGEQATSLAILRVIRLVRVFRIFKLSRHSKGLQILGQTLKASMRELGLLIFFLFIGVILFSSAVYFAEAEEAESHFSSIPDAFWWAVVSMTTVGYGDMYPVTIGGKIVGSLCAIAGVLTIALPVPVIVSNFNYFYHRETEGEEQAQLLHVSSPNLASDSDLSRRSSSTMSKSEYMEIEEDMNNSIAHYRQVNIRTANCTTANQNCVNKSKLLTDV
5-hydroxytryptamine receptor 3A, sequence (P46098 whole entry): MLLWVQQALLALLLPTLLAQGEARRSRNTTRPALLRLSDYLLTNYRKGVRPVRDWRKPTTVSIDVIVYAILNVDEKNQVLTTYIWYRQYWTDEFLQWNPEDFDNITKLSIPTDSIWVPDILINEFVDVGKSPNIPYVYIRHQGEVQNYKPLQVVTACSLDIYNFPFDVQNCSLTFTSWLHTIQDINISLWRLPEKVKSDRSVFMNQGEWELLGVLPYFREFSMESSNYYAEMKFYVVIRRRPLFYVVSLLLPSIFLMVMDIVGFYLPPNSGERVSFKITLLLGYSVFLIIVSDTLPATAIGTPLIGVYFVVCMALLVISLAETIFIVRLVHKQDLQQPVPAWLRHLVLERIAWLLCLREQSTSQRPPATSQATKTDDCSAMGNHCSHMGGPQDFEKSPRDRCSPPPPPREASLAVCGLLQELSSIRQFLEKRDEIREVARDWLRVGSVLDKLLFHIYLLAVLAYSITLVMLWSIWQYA
Galanin peptides, sequence (P22466 33-62 limits assumed): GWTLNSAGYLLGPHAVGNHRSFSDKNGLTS
Neuropeptide Y receptor type 2, sequence (P49146 whole entry): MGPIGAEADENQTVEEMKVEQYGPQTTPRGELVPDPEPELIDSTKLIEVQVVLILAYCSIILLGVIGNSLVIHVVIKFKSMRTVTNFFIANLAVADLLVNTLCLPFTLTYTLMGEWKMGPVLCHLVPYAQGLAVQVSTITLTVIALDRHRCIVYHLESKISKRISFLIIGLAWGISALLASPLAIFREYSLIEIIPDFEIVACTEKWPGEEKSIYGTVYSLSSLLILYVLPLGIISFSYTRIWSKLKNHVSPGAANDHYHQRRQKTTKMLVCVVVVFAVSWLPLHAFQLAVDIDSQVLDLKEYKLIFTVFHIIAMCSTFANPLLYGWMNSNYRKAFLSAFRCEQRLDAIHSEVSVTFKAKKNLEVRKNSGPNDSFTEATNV
Thromboxane A2 receptor, sequence (P21731 whole entry): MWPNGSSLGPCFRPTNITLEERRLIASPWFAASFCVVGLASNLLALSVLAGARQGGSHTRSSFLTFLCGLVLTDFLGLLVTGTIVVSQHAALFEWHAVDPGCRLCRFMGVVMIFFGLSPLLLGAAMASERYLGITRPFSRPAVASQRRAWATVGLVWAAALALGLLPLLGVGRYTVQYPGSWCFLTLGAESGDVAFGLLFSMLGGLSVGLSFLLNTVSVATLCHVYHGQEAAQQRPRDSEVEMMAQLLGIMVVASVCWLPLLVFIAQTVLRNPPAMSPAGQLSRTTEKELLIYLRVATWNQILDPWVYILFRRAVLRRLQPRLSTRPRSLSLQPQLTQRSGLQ
B2 bradykinin receptor, sequence (P30411 whole entry): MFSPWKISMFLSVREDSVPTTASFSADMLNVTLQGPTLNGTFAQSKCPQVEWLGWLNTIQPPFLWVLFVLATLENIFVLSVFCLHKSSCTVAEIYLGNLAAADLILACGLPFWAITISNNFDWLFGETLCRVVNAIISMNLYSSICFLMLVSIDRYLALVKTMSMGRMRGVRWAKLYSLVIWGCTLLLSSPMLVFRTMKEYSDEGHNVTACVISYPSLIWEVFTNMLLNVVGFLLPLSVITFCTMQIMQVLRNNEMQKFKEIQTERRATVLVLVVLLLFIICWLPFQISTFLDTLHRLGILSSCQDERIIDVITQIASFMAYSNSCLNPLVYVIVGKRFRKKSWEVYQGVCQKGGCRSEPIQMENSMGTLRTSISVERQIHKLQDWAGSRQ
Gamma-aminobutyric acid receptor subunit alpha-1, sequence (P14867 whole entry): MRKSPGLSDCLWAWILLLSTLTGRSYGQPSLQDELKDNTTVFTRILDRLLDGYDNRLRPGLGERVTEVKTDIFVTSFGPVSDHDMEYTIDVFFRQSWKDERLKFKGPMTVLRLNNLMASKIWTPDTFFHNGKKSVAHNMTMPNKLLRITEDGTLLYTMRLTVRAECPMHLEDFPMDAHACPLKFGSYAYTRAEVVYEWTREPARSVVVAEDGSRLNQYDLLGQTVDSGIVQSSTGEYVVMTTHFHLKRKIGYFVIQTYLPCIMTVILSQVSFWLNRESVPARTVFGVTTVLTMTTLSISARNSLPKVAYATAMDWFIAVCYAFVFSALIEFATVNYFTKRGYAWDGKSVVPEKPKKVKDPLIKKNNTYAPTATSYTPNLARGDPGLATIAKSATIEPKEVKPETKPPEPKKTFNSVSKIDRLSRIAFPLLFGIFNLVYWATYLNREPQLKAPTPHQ
Substance-K receptor, sequence (P21452 whole entry): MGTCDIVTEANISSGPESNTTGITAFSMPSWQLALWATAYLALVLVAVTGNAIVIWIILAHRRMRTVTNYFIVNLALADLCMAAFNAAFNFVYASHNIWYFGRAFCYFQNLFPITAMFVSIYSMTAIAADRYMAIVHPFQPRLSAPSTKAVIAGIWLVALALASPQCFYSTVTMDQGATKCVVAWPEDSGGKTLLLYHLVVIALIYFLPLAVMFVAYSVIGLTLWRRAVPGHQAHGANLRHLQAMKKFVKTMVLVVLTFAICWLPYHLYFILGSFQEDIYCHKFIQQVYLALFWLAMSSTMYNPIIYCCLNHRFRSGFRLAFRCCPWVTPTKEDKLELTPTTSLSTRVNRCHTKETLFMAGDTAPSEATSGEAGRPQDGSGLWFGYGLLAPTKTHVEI

Cc1ccc(Cn2nc(C(=O)NC3C(C)(C)C4CC[C@@]3(C)C4)cc2-c2ccc(Cl)c(C)c2)cc1 (stereo not given in full) [N-(1,3,3-trimethylbicyclo(2.2.1)heptan-2-yl)-5-(4-chloro-3-methylphenyl)-1-(4-methylbenzyl)pyrazole-3-carboxamide]
> 10 µM: [1] | P2X purinoceptor 1 | [2] | [3] | [4] | [5] | Neurotensin/neuromedin N | [6] | Vasopressin V1b receptor | P2Y purinoceptor 1 | [7] | Substance-K receptor | Vasopressin V2 receptor | [8] | [9] | Histamine H3 receptor | [10] | [11] | Histamine H2 receptor | [12] | Galanin peptides | [13] | D(1A) dopamine receptor | Adenosine receptor A2a | [14] | [15] | [16] | Substance-P receptor | [17] | [18] | VIP peptides | [19] | Adenosine receptor A1 | [20] | B2 bradykinin receptor | [21] | [22] | Histamine H1 receptor | [23] | Thromboxane A2 receptor
